In patent publication US8119614B2, “Substitution derivatives of N6-benzyladenosine, methods of their preparation, their use for preparation of drugs, cosmetic preparations and growth regulators, pharmaceutical preparations, cosmetic preparations and growth regulators containing these compounds” (Ustav Experimentalni Botaniky Akademie Ved Ceske Republiky, priority 2002, dated 2012):

What was measured:
[1] = tested on: human diploid fibroblasts (HCA cells); assay: Inhibition of senescence of mammal cells: β-galactosidase staining of senescent cells; assay type: cell-based; settings: for Senescent cells (%) HCA25: passage 25; for Senescent cells (%) HCA45: passage 45; for Senescent cells (%) HCA80: passage 80
Method: In this example, human diploid fibroblasts (HCA cells with different levels of passage: passage 25—labelling HCA25; passage 45—labelling HCA45; passage 80—labelling HCA80) were used for studying β-galactosidase activity. Medium used for cells cultivation was removed, cells were washed twice with PBS and fixed in 2-3 ml of fixation agent consisting of 2% of formaldehyde and 0.2% of flutaraldehyde in PBS. Cells were incubated at room temperature for 5 min and subsequently washed twice with PBS. Cells were then incubated at 37° C. (without CO2) for 1 to 16 hours in 2-3 ml of solution comprising potassium ferricyanide (5 mM), potassium ferrocyanide (5 mM), MgCl2 (2 mM), X-gal (5-bromo-4-chloro-3-indolyl-β-D-galactopyranoside) (1 mg/ml) in citrate/phosphate buffer, pH 6.0. […] In this experiment only senescent cells were labelled due to the effect of β-galactosidase on the substrate.

promyelocytic HL-60 = assay: In vitro cytotoxic activity, Calcein AM assay, HL60; assay type: cell-based, human; settings: 72 hours, read-out: IC 50 HL60
How it was run: (§1)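 Read-out: Calcein AM fluorescence of viable cells, 1 h after dye addition, expressed relative to mean control wells. Compounds were applied for 72 h in DMEM/10% FCS at six 4-fold dilutions, highest usually 166.7 μM; GI50 derived from dose-response curves.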

[2] = tested on: human erythroleukaemia K562; assay: In vitro cytotoxic activity, Calcein AM assay, K-562; assay type: cell-based; settings: 72 hours, read-out: IC 50 K-562
How it was run: as §1

[3] = tested on: Human T-lymphoblastic leukemia cell line CEM; assay: In vitro cytotoxic activity, Calcein AM assay, CEM; assay type: cell-based; settings: 72 hours
How it was run: as §1

[4] = tested on: human malignant melanoma cells G361; assay: In vitro cytotoxic activity, Calcein AM assay, G-361; assay type: cell-based; settings: 72 hours, read-out: IC 50 G-361
Excerpt: One of the parameters used, as the basis for cytotoxicity assays, is the metabolic activity of viable cells. For example, a microtiter assay, which uses the Calcein AM, is now widely used to quantitate cell proliferation and cytotoxicity. For instance, this assay is used in drug screening programs and in chemosensitivity testing. Because only metabolically active cells cleave Calcein AM, these assays detect viable cells exclusively. The quantity of reduced Calcein AM corresponds to the number of vital cells in the culture.
Human T-lymphoblastic leukemia cell line CEM; promyelocytic HL-60 and monocytic U937 leukemias; breast carcinoma cell lines MCF-7; cervical carcinoma cells HELA; mouse fibroblasts NIH3T3; human erythroleukaemia K562 and human malignant melanoma cells G361 were used for routine screening of compounds. The cells were maintained in Nunc/Corning 80 cm^2 plastic tissue culture flasks and cultured in cell culture medium (DMEM with 5 g/l glucose, 2 mM glutamine, 100 U/ml penicillin, 100 μg/ml streptomycin, 10% fetal calf serum and sodium bicarbonate).
The cell suspensions that were prepared and diluted according to the particular cell type and the expected target cell density (10^4 cells per well based on cell growth characteristics) were added by pipette (80 μl) into 96/well microtiter plates. Inoculates were allowed a pre-incubation period of 24 hours at 37° C. and 5% CO2 for stabilisation. Four-fold dilutions of the intended test concentration were added at time zero in 20 μl aliquots to the microtiter plate wells. Usually, test compound was evaluated at six 4-fold dilutions. In routine testing, the highest well concentration was 166.7 μM, but it can be the matter of change dependent on the agent. All drug concentrations were examined in duplicates. Incubations of cells with the test compounds lasted for 72 hours at 37° C., in 5% CO2 atmosphere and 100% humidity. At the end of incubation period, the cells were assayed by using the Calcein AM. Ten microliters of the stock solution were pipetted into each well and incubated further for 1 hours. Fluorescence (FD) was measured with the Labsystem FIA Reader Fluoroscan Ascent (UK). The tumour cell survival (GI50) was calculated using the following equitation: GI50=(FDdrug exposed well/mean FDcontrol wells)×100%. The GI50 value, the drug concentration lethal to 50% of the tumour cells, was calculated from the obtained dose response curves (FIG. 3).

[5] = tested on: breast carcinoma cell lines MCF-7; assay: In vitro cytotoxic activity, Calcein AM assay, MCF7; assay type: cell-based, human; settings: 72 hours, read-out: IC 50 MCF7
How it was run: as §1

mouse fibroblasts NIH3T3 = assay: In vitro cytotoxic activity, Calcein AM assay, NIH-3T3; assay type: cell-based; settings: 72 hours, read-out: IC 50 NIH-3T3
How it was run: as §1

HOS = assay: In vitro cytotoxic activity, Calcein AM assay, HOS; assay type: cell-based; settings: 72 hours
[6] = tested on: Triticum aestivum cv. Hereward; assay: Senescence inhibition on winter wheat leaf segments (chlorophyll retention); assay type: in vivo; settings: for Concentration with highest activity: chlorophyll retention in excised wheat leaf tips, 96 h dark; for Activity (%) [10^−4 mol · l^−1 BAP = 100%]: chlorophyll retention, at concentration with highest activity
How it was run: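 Tip segments of the first leaf from 7-day wheat seedlings held, basal ends down, in cytokinin solutions (10^−8M to 10^−4M) for 96 h at 25° C in darkness. Chlorophyll extracted in 80% ethanol at 80° C, read at 665 nm; activity at best concentration given relative to 10^−4 M BAP (100%), means of five replicates.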

[7] = tested on: Amaranthus caudatus cotyledon/hypocotyl explants; assay: Amaranthus bioassay (betacyanin content); assay type: in vivo; settings: for Concentration with highest activity: 48 h dark; for Activity (%) [10^−5 mol · l^−1 BAP = 100%]: at concentration with highest activity
How it was run: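 Surface-sterilised Amaranthus caudatus var. atropurpurea seeds were germinated 72 h at 25° C. in darkness, then de-rooted. Cotyledon/hypocotyl explants (20 per dish) were incubated under green safe light on filter paper with 1 ml medium of 10 μmol NA2HPO4-KH2PO4, pH 6.8, 5 μmol tyrosine and cytokinin (10^-8M to 10^-4M) for 48 h at 25° C. in darkness. Betacyanin was extracted in […] acetic acid and measured by absorbance at 537 nm and 620 nm.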

[8] = tested on: tobacco callus Nicotiana tabacum L. cv. Wisconsin 38; assay: Growth of cytokinin-dependent tobacco callus; assay type: cell-based; settings: for Activity (%) [10^−5 mol · l^−1 BAP = 100%]: callus growth, at concentration with highest activity; for Concentration with highest activity: fresh callus weight after four weeks
Method: Cytokinin-dependent tobacco callus Nicotiana tabacum L. cv. Wisconsin 38 was maintained at 25° C. in darkness on modified Murashige-Skoog medium, containing per 1 liter: 4 μmol nicotinic acid, 2.4 μmol pyridoxine hydrochloride, 1.2 μmol thiamine, 26.6 μmol glycine, 1.37 μmol glutamine, 1.8 μmol myo-inositol, 30 g of sucrose, 8 g of agar, 5.37 μmol α-naphtylacetic acid (NAA) and 0.5 μmol benzylaminopurine (BAP). Subcultivation was carried out every three weeks. Fourteen days before the bioassay, the callus tissue was transferred to the media without 6-benzylaminopurine (BAP). Biological activity was determined from the increase in fresh callus weight after four weeks of cultivation. Five replicates were prepared for each cytokinin concentration and the entire test was repeated twice. From the obtained data, the concentration with highest activity was selected for each compound tested. Relative activity of the compound at this concentration was calculated (Tab. 6). […] The cytokinins to be tested were dissolved in dimethylsulfoxide (DMSO) and the solution brought up to 10^−3M with distilled water. This stock was further diluted in the respective media used for the biotest to concentrations ranging from 10^−8M to 10^−4M.

| Compound | Senescent cells (%) HCA25 [1] [%] | Senescent cells (%) HCA45 [1] [%] | Senescent cells (%) HCA80 [1] [%] | IC50 (promyelocytic HL-60) [µM] | IC50 [2] [µM] | IC50 [3] [µM] | IC50 [4] [µM] | IC50 [5] [µM] | IC50 (mouse fibroblasts NIH3T3) [µM] | IC50 (HOS) [µM] | Concentration with highest activity [6] | Activity (%) [10^−4 mol · l^−1 BAP = 100%] [6] [%] | Concentration with highest activity [7] | Activity (%) [10^−5 mol · l^−1 BAP = 100%] [7] [%] | Activity (%) [10^−5 mol · l^−1 BAP = 100%] [8] [%] | Concentration with highest activity [8] |
| --- | --- | --- | --- | --- | --- | --- | --- | --- | --- | --- | --- | --- | --- | --- | --- | --- |
| c1coc(CNc2ncnc3[nH]cnc23)c1 [Kinetin, reference compound] | 3 | 5 | 25 |  |  |  |  |  |  |  |  |  |  |  |  |  |
| OC[C@H]1O[C@@H](n2cnc3c(Nc4cccc(Cl)c4)ncnc32)[C@H](O)[C@@H]1O [3-chloroanilino] | 4 | 4 | 27 |  |  |  |  |  |  |  |  |  |  |  |  |  |
| OC[C@H]1O[C@@H](n2cnc3c(NCc4cccc(Cl)c4O)nc(Cl)nc32)[C@H](O)[C@@H]1O [R2 = Cl, 2-hydroxy-3-chlorobenzylamino] |  |  |  | 0.1 | 10 | 0.2 | 118 | 14 | > 167 | > 167 |  |  |  |  |  |  |
| OC[C@H]1O[C@@H](n2cnc3c(NCc4ccc(O)cc4)nc(Cl)nc32)[C@H](O)[C@@H]1O [R2 = Cl, 4-hydroxybenzylamino] |  |  |  | 9.5 | > 167 | 39.7 | > 167 | > 167 | > 167 | > 167 |  |  |  |  |  |  |
| OC[C@H]1O[C@@H](n2cnc3c(NCc4ccc(O)cc4)ncnc32)[C@H](O)[C@@H]1O [4-hydroxybenzylamino, 6-(4-hydroxybenzylamino)purine riboside] |  |  |  | 9.5 | > 167 | 39.7 | > 167 | > 167 | > 167 | > 167 |  |  |  |  |  |  |
| COc1ccc(CNc2nc(Cl)nc3c2ncn3[C@@H]2O[C@H](CO)[C@@H](O)[C@H]2O)cc1 [R2 = Cl, 4-methoxyxybenzylamino] |  |  |  | > 167 | > 167 | > 167 | 105 | > 167 | > 167 | > 167 |  |  |  |  |  |  |
| CSc1nc(NCc2cccc(F)c2)c2ncn([C@@H]3O[C@H](CO)[C@@H](O)[C@H]3O)c2n1 [R2 = SCH3,3-fluorobenzylamino] |  |  |  | 5.2 | 7.9 | 8.5 | 28 | 31 | > 167 | > 167 |  |  |  |  |  |  |
| COc1ccccc1CNc1nc(Cl)nc2c1ncn2C1OC(CO)C(O)C1O (stereo not drawn) [R2 = Cl, 2-methoxyxybenzylamino] |  |  |  | 1.5 | 14.5 | 2.7 | > 167 | > 167 | > 167 | 15.3 |  |  |  |  |  |  |
| OC[C@H]1O[C@@H](n2cnc3c(NCc4ccccc4O)nc(Cl)nc32)[C@H](O)[C@@H]1O [R2 = Cl, 2-hydroxybenzylamino] |  |  |  | 0.38 | 75 | 0.56 | > 167 | 10.5 | 35.1 | 2.5 |  |  |  |  |  |  |
| COc1cccc(CNc2ncnc3c2ncn3[C@@H]2O[C@H](CO)[C@@H](O)[C@H]2O)c1OC [2,3-dimethoxybenzylamino, 6-(2,3-dimethoxybenzylamino)purine riboside] | 4 | 5 | 18 | 109 | > 167 | > 167 |  | > 167 | > 167 | > 167 | 10^−4 mol · l^−1 | 106 ± 17 | 10^−4 mol · l^−1 | 21 ± 7 | 5 ± 2 | 10^−6 mol · l^−1 |
| Nc1cc(CNc2ncnc3c2ncn3[C@@H]2O[C@H](CO)[C@@H](O)[C@H]2O)ccc1Cl [3-amino-4-chlorobenzylamino, 6-(3-amino-4-chlorobenzylamino)purine riboside] | 4 | 6 | 22 |  |  |  |  |  |  |  |  |  |  |  |  |  |
| COc1cccc(CNc2nc(SC)nc3c2ncn3[C@@H]2O[C@H](CO)[C@@H](O)[C@H]2O)c1 [R2 = SCH3,3-methoxyxybenzylamino] |  |  |  | 8.8 | > 167 | 16.5 | > 167 | > 167 | > 167 | > 167 |  |  |  |  |  |  |
| OC[C@H]1O[C@@H](n2cnc3c(NCc4cccc(F)c4)nc(Cl)nc32)[C@H](O)[C@@H]1O [R2 = Cl, 3-fluorobenzylamino] |  |  |  | 0.9 | 5.3 | 3 | 16 | 16 | > 167 | > 167 |  |  |  |  |  |  |
| OC[C@H]1O[C@@H](n2cnc3c(NCc4cccc(O)c4)nc(Cl)nc32)[C@H](O)[C@@H]1O [R2 = Cl, 3-hydroxybenzylamino] |  |  |  | 15.9 | > 167 | 47.8 | > 167 | > 167 | > 167 | > 167 |  |  |  |  |  |  |
| COc1ccc(CNc2ncnc3c2ncn3[C@@H]2O[C@H](CO)[C@@H](O)[C@H]2O)cc1 [4-methoxybenzylamino, 6-(4-methoxybenzylamino)purine riboside] |  |  |  | > 167 | > 167 | > 167 | 115 | > 167 | > 167 | > 167 | 10^−4 mol · l^−1 | 110 ± 9 | 10^−4 mol · l^−1 | 17 ± 8 | 2 ± 2 | 10^−6 mol · l^−1 |
| Nc1nc(NCc2cccc(F)c2)c2ncn([C@@H]3O[C@H](CO)[C@@H](O)[C@H]3O)c2n1 [R2 = NH2,3-fluorobenzylamino] |  |  |  | 3.4 | 12 | 21 | 21 | 36 | > 167 | > 167 |  |  |  |  |  |  |
